According to patent US20060264388A1, “Method for treating liver cancer by intrahepatic administration of nemorubicin” (priority 2003, published 2006):

How the values were obtained:
[1] = tested on: liver lesions of breast cancer patients with liver metastases; conditions: 1500 mcg/m^2 i.v., cited from earlier work
[2] = tested on: liver metastases from M5076 murine fibrosarcoma; conditions: cited from earlier work
[3] = tested on: liver metastases from M5076 murine; conditions: M5076 murine reticulosarcoma; cited from earlier work
[4] = tested on: patients with liver cancer; assay: Hematological toxicity - Leucocytes, worst CTC Grade by cycle, intrahepatic artery nemorubicin q8wk vs q6wk; assay type: in vivo, human
Description: (§1) The objective of the study was to shorten the time interval between treatment administrations from every 8 weeks (q8wk) of the protocol as reported in WO 00/15203 to every 6 weeks (q6wk). This was done in the attempt of improving the therapeutic potential of nemorubicin treatment through an increase of the dose intensity of the therapy, simultaneously safeguarding patient safety.
(§2) Overall, 13 patients were treated with the q8wk schedule (total 25 cycles administered; doses ranged from 200 to 800 mcg/m^2), and 11 patients were treated with the q6wk schedule (total 32 cycles administered; doses were 200 and 600 mcg/m^2).
The NCI-Common Tosicity Criteria grading system (CTC Grade), Version 2.0, was used to report toxicities.
A slight cumulative effect (i.e., increase in frequency but not in severity) was observed after repeated cycles for leucopenia and neutropenia (Tables 2 and 3), mainly with the q8wk schedule.

[5] = tested on: human liver tumor; assay: Efficacy: tumor response, intrahepatic artery nemorubicin q8wk vs q6wk; assay type: in vivo
Description: as §1, §2

[6] = tested on: tumor cells resistant to L-PAM or cDDP, or cells resistant to Topoisomerase II inhibitors (at-mdr); conditions: cited from earlier work
[7] = 200 mcg/m^2 q6wk, All cycles, 11 evaluable cycles
[8] = 200 mcg/m^2 q6wk, Cycles > 1, 6 evaluable cycles
[9] = 200 mcg/m^2 q8wk, All cycles, 5 evaluable cycles
[10] = 200 mcg/m^2 q8wk, Cycle 1, 3 evaluable cycles
[11] = 200 mcg/m^2 q8wk, Cycles > 1, 2 evaluable cycles
[12] = 400 mcg/m^2 q8wk, All cycles, 4 evaluable cycles
[13] = 400 mcg/m^2 q8wk, Cycle 1, 3 evaluable cycles
[14] = 600 mcg/m^2 q6wk, All cycles, 18 evaluable cycles
[15] = 600 mcg/m^2 q6wk, Cycle 1, 6 evaluable cycles
[16] = 600 mcg/m^2 q6wk, Cycles > 1, 12 evaluable cycles
[17] = 600 mcg/m^2 q8wk, All cycles, 8 evaluable cycles
[18] = 600 mcg/m^2 q8wk, Cycle 1, 4 evaluable cycles
[19] = 600 mcg/m^2 q8wk, Cycles > 1, 4 evaluable cycles
[20] = 800 mcg/m^2 q8wk, All cycles, 4 evaluable cycles
[21] = 800 mcg/m^2 q8wk, Cycle 1, 3 evaluable cycles
[22] = 800 mcg/m^2 q8wk, Cycles > 1, 1 evaluable cycle

SMILES: COc1cccc2c1C(=O)c1c(O)c3c(c(O)c1C2=O)C[C@@](O)(C(=O)CO)C[C@@H]3O[C@H]1C[C@H](N2CCO[C@H](OC)C2)[C@H](O)[C@H](C)O1.Cl [nemorubicin, 3′desamino-3′[2(S)methoxy-4-morpholinyl]doxorubicin-hydrochloride]
- complete response (CR) in liver lesions ([1]; 6 patients): 1
- partial responses (PRs) in liver lesions (2 confirmed and 1 unconfirmed) ([1]; 6 patients): 3
- patients with response in liver lesions [1]: 4 out of 6
- efficacy on liver metastases versus solid primary ([2]; administered orally): more effective on the liver metastases than on the solid primary
- efficacy relative to oral formulation ([2]; injectable formulation): less effective
- best result on survival ([2]; oral formulation, administered daily for 5 days): doubling of survival time
- activity against liver metastases, oral versus i.v. [3]: higher after oral administration as compared to the i.v. route
- Leucocytes, worst CTC Grade by cycle: All Grades (%) [4, 7]: 4 (36%) (%)
- Leucocytes, worst CTC Grade by cycle: Grade 1-2 (%) [4, 7]: 3 (27%) (%)
- Leucocytes, worst CTC Grade by cycle: All Grades (%) ([4]; 200 mcg/m^2 q6wk, Cycle 1, 5 evaluable cycles): 1 (20%) (%)
- Leucocytes, worst CTC Grade by cycle: All Grades (%) [4, 8]: 3 (50%) (%)
- Leucocytes, worst CTC Grade by cycle: Grade 1-2 (%) [4, 8]: 3 (50%) (%)
- Leucocytes, worst CTC Grade by cycle: All Grades (%) [4, 9]: 4 (80%) (%)
- Leucocytes, worst CTC Grade by cycle: Grade 1-2 (%) [4, 9]: 4 (80%) (%)
- Leucocytes, worst CTC Grade by cycle: All Grades (%) [4, 10]: 2 (67%) (%)
- Leucocytes, worst CTC Grade by cycle: Grade 1-2 (%) [4, 10]: 2 (67%) (%)
- Leucocytes, worst CTC Grade by cycle: All Grades (%) [4, 11]: 2 (100%) (%)
- Leucocytes, worst CTC Grade by cycle: Grade 1-2 (%) [4, 11]: 2 (100%) (%)
- Leucocytes, worst CTC Grade by cycle: All Grades (%) [4, 12]: 1 (25%) (%)
- Leucocytes, worst CTC Grade by cycle: Grade 1-2 (%) [4, 12]: 1 (25%) (%)
- Leucocytes, worst CTC Grade by cycle: All Grades (%) [4, 13]: 1 (33%) (%)
- Leucocytes, worst CTC Grade by cycle: Grade 1-2 (%) [4, 13]: 1 (33%) (%)
- Leucocytes, worst CTC Grade by cycle: All Grades (%) [4, 14]: 8 (44%) (%)
- Leucocytes, worst CTC Grade by cycle: Grade 1-2 (%) [4, 14]: 8 (44%) (%)
- Leucocytes, worst CTC Grade by cycle: All Grades (%) [4, 15]: 2 (33%) (%)
- Leucocytes, worst CTC Grade by cycle: Grade 1-2 (%) [4, 15]: 2 (33%) (%)
- Leucocytes, worst CTC Grade by cycle: All Grades (%) [4, 16]: 6 (50%) (%)
- Leucocytes, worst CTC Grade by cycle: Grade 1-2 (%) [4, 16]: 6 (50%) (%)
- Leucocytes, worst CTC Grade by cycle: All Grades (%) [4, 17]: 7 (87%) (%)
- Leucocytes, worst CTC Grade by cycle: Grade 1-2 (%) [4, 17]: 7 (87%) (%)
- Leucocytes, worst CTC Grade by cycle: All Grades (%) [4, 18]: 3 (75%) (%)
- Leucocytes, worst CTC Grade by cycle: Grade 1-2 (%) [4, 18]: 3 (75%) (%)
- Leucocytes, worst CTC Grade by cycle: All Grades (%) [4, 19]: 4 (100%) (%)
- Leucocytes, worst CTC Grade by cycle: Grade 1-2 (%) [4, 19]: 4 (100%) (%)
- Leucocytes, worst CTC Grade by cycle: All Grades (%) [4, 20]: 3 (75%) (%)
- Leucocytes, worst CTC Grade by cycle: Grade 1-2 (%) [4, 20]: 3 (75%) (%)
- Leucocytes, worst CTC Grade by cycle: All Grades (%) [4, 21]: 2 (67%) (%)
- Leucocytes, worst CTC Grade by cycle: Grade 1-2 (%) [4, 21]: 2 (67%) (%)
- Leucocytes, worst CTC Grade by cycle: All Grades (%) [4, 22]: 1 (100%) (%)
- Leucocytes, worst CTC Grade by cycle: Grade 1-2 (%) [4, 22]: 1 (100%) (%)
- lesion area reduction versus baseline ([5]; 200 mcg/m^2 q6wk, one patient AJCC stage II (confirmed PR), CT scan 5 weeks after going off study): 70%
- tumor shrinkage versus baseline ([5]; 200 mcg/m^2 q6wk, one patient AJCC stage II (confirmed PR), after 2 cycles): 64%
- duration of PR in the original lesion (right lobe) ([5]; 200 mcg/m^2 q8wk, one patient AJCC stage II (unconfirmed PR)): ≥ 12 months
- decrease in tumor area versus baseline ([5]; 200 mcg/m^2 q8wk, one patient AJCC stage II (unconfirmed PR), after 2 cycles): 85.9%
- shrinkage of measurable lesion versus baseline ([5]; 200 mcg/m^2 q8wk, one patient AJCC stage III (confirmed PR), after 1 cycle): 78.45%
- lesion area reduction versus baseline ([5]; 200 mcg/m^2 q8wk, one patient AJCC stage III (confirmed PR), second cycle): 95.3%
- duration of PR ([5]; 600 mcg/m^2 q6wk, one patient AJCC stage III (confirmed PR), 5 cycles): ≥ 8 months
- reduction of measurable lesion area versus baseline ([5]; 600 mcg/m^2 q6wk, one patient AJCC stage III (confirmed PR), cycle 3): 78.2%
- reduction of the measurable lesion area ([5]; 600 mcg/m^2 q6wk, one patient AJCC stage III (confirmed PR), first treatment cycle): 48.4%
- duration of PR in the original lesion (right lobe) ([5]; 600 mcg/m^2 q8wk, one patient stage III (unconfirmed PR)): about 3 months
- decrease of lesion area versus baseline ([5]; 600 mcg/m^2 q8wk, one patient stage III (unconfirmed PR), after one cycle): 54.3%
- decrease in tumor area versus baseline, perfused right lobe ([5]; 600 mcg/m^2 q8wk, one patient stage III (unconfirmed PR), cycle 2): 68.2%
- decrease of the tumor area versus baseline ([5]; 800 mcg/m^2 q8wk, one patient AJCC stage III (unconfirmed PR), after 3 cycles): 52%
- confirmed PR out of treated patients ([5]; q6wk schedule): two confirmed PR out of 11 treated patients
- confirmed PR out of treated patients ([5]; q8wk schedule): one confirmed PR out of 13 treated patients
- cross-resistance [6]: No cross-resistance
